This passage reports IC50 results from patent publication US20130217664A1, “NOVEL COMPOUNDS USEFUL FOR THE TREATMENT OF DEGENERATIVE AND INFLAMMATORY DISEASES” (priority 2012, published 2013).

One experiment deals with T1, human JAK2 (Homo sapiens, UniProt O60674).
T1 construct: catalytic domain (amino acids 808-1132; catalog number PV4210); GST; purchased Invitrogen PV4210
As to the kind of experiment: JAK2 inhibition assay (polyGT substrate / Ulight-JAK1 peptide). Format: biochemical. The following applies: recombinant human JAK2 catalytic domain; polyGT or Ulight-JAK1 peptide assay. The essentials: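 Two JAK2 formats: a ^33P-ATP polyGT assay (1 μM cold ATP, 90 min, 30° C., cpm read-out) and a Ulight-JAK1 peptide assay read by Europium-anti-phosphotyrosine fluorescence after 60 min at room temperature.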

A further experiment addresses T2, human TYK2 (Homo sapiens, UniProt P29597).
T2 construct: catalytic domain (amino acids 871-1187; catalog number 08-147); purchased Carna Biosciences 08-147
T2 sequence (P29597 871-1187): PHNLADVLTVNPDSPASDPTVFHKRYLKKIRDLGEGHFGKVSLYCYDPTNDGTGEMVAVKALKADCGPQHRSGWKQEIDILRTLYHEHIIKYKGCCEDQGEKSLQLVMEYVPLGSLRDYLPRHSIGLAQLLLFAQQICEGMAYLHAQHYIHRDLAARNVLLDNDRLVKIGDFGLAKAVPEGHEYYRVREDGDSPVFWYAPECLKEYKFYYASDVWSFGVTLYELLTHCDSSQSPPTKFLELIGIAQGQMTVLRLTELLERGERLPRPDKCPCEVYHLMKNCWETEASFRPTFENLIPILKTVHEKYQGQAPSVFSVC
Put plainly: TYK2 inhibition assay. It is filed as biochemical. The following applies: recombinant human TYK2 catalytic domain, polyGT substrate. In outline: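 Radiometric kinase reaction run 90 min at 30 °C, stopped with phosphoric acid, washed and scintillation-counted.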

A further experiment deals with CTLL-2 cell line. Put plainly: CTLL2 viability assay. Format: cell-based. The following applies: Mus musculus, IL-2 dependent CTLL2 viability, 24 h, ATP-lite. The text has this: The protocol describes the methods to analyse the activity of compounds on their ability to sustain the IL2-dependent viability of CTLL2.
Final DMSO concentration was 0.1%.

The subject of a further experiment is BA/F3 cell line. Put plainly: BA/F3 viability assay. The following applies: Mus musculus, BaF3, 48 h, read-out: BA/F3 IC50.

T1 sequence (O60674 808-1132): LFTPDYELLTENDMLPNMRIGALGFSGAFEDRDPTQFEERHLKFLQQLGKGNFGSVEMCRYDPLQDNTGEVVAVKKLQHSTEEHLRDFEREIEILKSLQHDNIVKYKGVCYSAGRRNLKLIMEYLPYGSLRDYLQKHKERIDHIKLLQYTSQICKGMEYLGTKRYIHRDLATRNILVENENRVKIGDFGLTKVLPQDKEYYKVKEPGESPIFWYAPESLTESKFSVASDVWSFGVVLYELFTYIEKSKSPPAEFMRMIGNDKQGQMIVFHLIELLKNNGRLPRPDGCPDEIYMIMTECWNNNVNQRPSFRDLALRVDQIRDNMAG

`CCc1cc(CO)ccc1N(C)c1cc2c(cn1)ncn2C` [Compound 81, (3-Ethyl-4-(methyl(1-methyl-1H-imidazo[4,5-c]pyridin-6-yl)amino)phenyl)MeOH]: the IC50 is 101 to 500 nM on human JAK2, 0.01 to 100 nM at human TYK2, greater than 1000 nM in the experiment on CTLL-2 cell line and greater than 5000 nM with BA/F3 cell line.

As for `CCc1cc(-c2cnn(C)c2)ccc1N(C)c1cc2c(cn1)ncn2C` [Compound 93, N-(2-Ethyl-4-(1-methyl-1H-pyrazol-4-yl)phenyl)-N,1-dimethyl-1H-imidazo[4,5-d]pyridin-6-amine], the IC50 is 0.01 to 100 nM at human JAK2, 0.01 to 100 nM at human TYK2, greater than 1000 nM in the experiment on CTLL-2 cell line and greater than 5000 nM with BA/F3 cell line.

Take `CCc1cc(-c2cncnc2)ccc1N(C)c1cc2c(cn1)ncn2C` [Compound 95, N-(2-ethyl-4-(pyrimidin-5-yl)phenyl)-N,1-dimethyl-1H-imidazo[4,5-c]pyridin-6-amine]: the IC50 was 101 to 500 nM on human JAK2, 0.01 to 100 nM at human TYK2, greater than 1000 nM with CTLL-2 cell line and greater than 5000 nM with BA/F3 cell line.

In the case of `CCc1cc(C(C)O)ccc1N(C)c1cc2c(cn1)ncn2C` (stereo not shown) [Compound 101, 1-(3-Ethyl-4-(methyl(1-methyl-1H-imidazo[4,5-c]pyridin-6-yl)amino)phenyl)ethanol], the IC50 on human JAK2 is 0.01 to 100 nM; on human TYK2 it was 0.01 to 100 nM; in the experiment on CTLL-2 cell line, greater than 1000 nM; in the experiment on BA/F3 cell line it was greater than 5000 nM.

For `CCc1cc(-c2cnc(NC(C)=O)nc2)ccc1N(C)c1cc2c(cn1)ncn2C` [Compound 115, N-(5-(3-Ethyl-4-(methyl(1-methyl-1H-imidazo[4,5-c]pyridin-6-yl)amino)phenyl)pyrimidin-2-yl)acetamide], the IC50 was 101 to 500 nM on human JAK2, 0.01 to 100 nM on human TYK2, greater than 1000 nM in the experiment on CTLL-2 cell line and greater than 5000 nM with BA/F3 cell line.

In the case of `CCc1cc(CN(C)S(C)(=O)=O)c(F)cc1N(C)c1cc2c(cn1)ncn2C` [Compound 319, N-{5-Ethyl-2-fluoro-4-[methyl-(1-methyl-1H-imidazo[4,5-c]pyridin-6-yl)-amino]-benzyl}-N-methyl-methanesulfonamide], the IC50 on human JAK2 was 0.01 to 100 nM; on human TYK2, 0.01 to 100 nM; in the experiment with CTLL-2 cell line, greater than 1000 nM; with BA/F3 cell line, 1000 to 5000 nM.

Take `CCc1cc(CNS(C)(=O)=O)cc(F)c1N(C)c1cc2c(cn1)ncn2C` [Compound 323, N-{3-Ethyl-5-fluoro-4-[methyl-(1-methyl-1H-imidazo[4,5-c]pyridin-6-yl)-amino]-benzyl}-methanesulfonamide]: the IC50 was 0.01 to 100 nM at human JAK2, 0.01 to 100 nM at human TYK2, greater than 1000 nM in the experiment on CTLL-2 cell line and greater than 5000 nM in the experiment with BA/F3 cell line.

On to `CCc1cc(CNS(C)(=O)=O)c(F)cc1N(C)c1cc2c(cn1)ncn2C` [Compound 325, N-{5-Ethyl-2-fluoro-4-[methyl-(1-methyl-1H-imidazo[4,5-c]pyridin-6-yl)-amino]-benzyl}-methanesulfonamide], for which the IC50 at human JAK2 was 0.01 to 100 nM; on human TYK2, 101 to 500 nM; in the experiment with CTLL-2 cell line, greater than 1000 nM; in the experiment with BA/F3 cell line, greater than 5000 nM.

For the compound `CCc1cc(CNS(=O)(=O)C(F)F)c(F)cc1N(C)c1cc2c(cn1)ncn2C` [Compound 327, N-{5-Ethyl-2-fluoro-4-[methyl-(1-methyl-M-imidazo[4,5-c]pyridin-6-yl)-amino]-benzyl}-C,C-difluoro-methanesulfonamide], the IC50 at human JAK2 was 0.01 to 100 nM; at human TYK2, 0.01 to 100 nM; in the experiment on CTLL-2 cell line it was 501 to 1000 nM; in the experiment on BA/F3 cell line, 1000 to 5000 nM.

For `CCc1cc(C2CN(S(C)(=O)=O)C2)ncc1N(C)c1cc2c(cn1)ncn2C` [Compound 328, [4-Ethyl-6-(1-methanesulfonyl-azetidin-3-yl)-pyridin-3-yl]-methyl-(1-methyl-1H-imidazo[4,5-c]pyridin-6-yl)-amine], the IC50 at human JAK2 was 101 to 500 nM; on human TYK2 it was 501 to 1000 nM; with CTLL-2 cell line it was greater than 1000 nM; in the experiment on BA/F3 cell line, greater than 5000 nM.

Regarding `CCc1cc(C2CN(S(=O)(=O)C(F)F)C2)ncc1N(C)c1cc2c(cn1)ncn2C` [Compound 329, {6-[1-(Difluoro-methanesulfonyl)-azetidin-3-yl]-4-ethyl-pyridin-3-yl}-methyl-(1-methyl-1H-imidazo[4,5-c]pyridin-6-yl)-amine], the IC50 at human JAK2 was 0.01 to 100 nM; on human TYK2, greater than 1000 nM; with CTLL-2 cell line it was 501 to 1000 nM; in the experiment with BA/F3 cell line, greater than 5000 nM.

`CCc1cc(C2CN(C(=O)C(F)F)C2)ncc1N(C)c1cc2c(cn1)ncn2C` [Compound 333, 1-(3-{4-Ethyl-5-[methyl-(1-methyl-1H-imidazo[4,5-c]pyridin-6-yl)-amino]-pyridin-2-yl}-azetidin-1-yl)-2,2-difluoro-ethanone]: the IC50 at human JAK2 is 101 to 500 nM; on human TYK2, 501 to 1000 nM; in the experiment on CTLL-2 cell line, greater than 1000 nM; with BA/F3 cell line, greater than 5000 nM.

Regarding `CCc1cc(C2CN(C(=O)C(F)(F)F)C2)ncc1N(C)c1cc2c(cn1)ncn2C` [Compound 334, 1-(3-{4-Ethyl-5-[methyl-(1-methyl-1H-imidazo[4,5-c]pyridin-6-yl)-amino]-pyridin-2-yl}-azetidin-1-yl)-2,2,2-trifluoro-ethanone], the IC50 at human JAK2 is 0.01 to 100 nM; on human TYK2 it was 501 to 1000 nM; in the experiment with CTLL-2 cell line it was greater than 1000 nM; in the experiment with BA/F3 cell line, greater than 5000 nM.
